The source of these data is patent publication US8871269B2, “Method for the preparation of controlled release formulations” (Evonik Corporation, priority 2003, dated 2014).

The structures appear in SMILES notation.

This series in a line: Stability of free peptide incubated in release medium (HPLC). Format: physicochemical. As to conditions: free peptide incubated in release medium (PBS, pH 7.2, 37 C), after 49 days. On the procedure:
Octreotide acetate as the free peptide was measured to be 95% intact by high-pressure liquid chromatography (HPLC) following incubation in the release medium (PBS, pH 7.2, 37° C.) after 49 days. In contrast, incubation of octreotide acetate PLGA microparticle formulations produced 55% of modified peptide species after 70 days in the release medium (PBS, pH 7.2, 37° C., Table 2). […] The masses found were consistent with random acylation, for example, peptide plus one or two glycolic or lactic acid monomers in any combination. It may be that acylation products arise from attack on PLGA fragments or the polymer backbone by nucleophilic moieties in octreotide. At a lower pH these moieties likely would be protonated reducing their nucleophilicity and consequently the amount of acylated product. It was observed that formation of acylated byproducts for octreotide acetate PLGA microparticles incubated in 100 mM sodium acetate (NaOAc, pH 4.0) buffer was reduced to 1.25% at 49 days, in marked contrast to the results for PBS buffer (55%).

As for `C[C@@H](O)[C@@H]1NC(=O)[C@H](CCCCN)NC(=O)[C@@H](Cc2c[nH]c3ccccc23)NC(=O)[C@H](Cc2ccccc2)NC(=O)[C@@H](NC(=O)[C@H](N)Cc2ccccc2)CSSC[C@@H](C(=O)N[C@H](CO)[C@@H](C)O)NC1=O` [Octreotide acetate], the “Peptide intact by HPLC” value worked out at 95%.
